What all share (assay type): cell-based
For assay [1], the system named is cell lines of human non-small cell lung cancer (H522). Nature of the assay: In vitro antineoplastic activity, MTT experiment, H522. Particulars: H522 cells, 48 hours, highest concentration tested 31.6 μM (>30: inhibition rate <50%). The protocol:
(§1) MTT, RPM1640 culture medium, fetal bovine serum, 96-well plate, CO2 thermostatic incubator, American BIO-RAD680 microplate reader, cell lines of human non-small cell lung cancer (H522), and cell lines of human brain glioma (U87) were all obtained commercially.
(§2) (1) Cell inoculation: A single cell suspension was prepared with culture media supplemented with 10% fetal bovine serum, plated into a 96-well plate with 5000 cells per well, each well having a volume of 100 μL, and cultured overnight.
(§3) (2) Preparation of compound solutions: a DMSO stock solution of a compound was diluted on a sterile bench with a culture medium into 5 concentrations to be tested, wherein a double dilution was employed between two adjacent concentrations.
(§4) (3) The compound solutions of various concentrations were added into the 96-well plate cultured overnight, with 100 μL added per well, triplicated wells for each concentration. Since the peripheral wells can have edge effect and are susceptible to contamination, no cells or compounds were added thereto; instead, 100 μL culture solution was added as a blank. Additionally, 100% wells were set to contain the cells and 100 μL culture media without any compound. The plates were incubated in a thermostatic incubator at 37° C. for 48 hours.
(§5) (4) Staining: 10 μL MTT solution (5 mg/mL, prepared with PBS) was added into the 96-well plate for staining. After incubation for 4 hours, centrifugation was performed at 2500 rpm for 10 minutes. Then, a multiple pipette was used to suck the culture solution out of the wells carefully without sucking out the cells while the pipette tip faced downward. 150 μL DMSO was added and shaken on a shaker for 5-10 minutes. Crystals were allowed to dissolve fully, and an OD value for each well was measured using the microplate reader at 570 nm. The inhibition rate was calculated as follows: Inhibition rate (%)=(average OD value of 100% wells−average OD value of compound wells)/(average OD value of 100% wells−average OD value of blank wells)×100%

The subject of assay [2] is cell lines of human brain glioma (U87). The assay can be described thus: In vitro antineoplastic activity, MTT experiment, U87. The protocol:
as §1, §2, §3, §4, §5

The test system of the next assay is human glioma U87 cells. The assay can be described thus: Tumor cell vacuolization (methuosis) scoring, U87. Conditions: U87 cells, 0.01-3.160 μM, 96 hours, microscope. Further details: key to Vacuolation Score: 5 scores were given when obvious vacuolization occurred at 10 nM; 4 scores at 31.6 nM; 3 scores at 100 nM; 2 scores at 316 nM; 1 score at 1000 nM; 0 score was given if no vacuolation occurred at any concentration. The method, then:
FIG. 2. Vacuolization of tumor cells. 100 microliter culture medium (RPMI1640, 2 mmol glutamine, 10% fetal bovine serum) containing 10^3 human colon adenocarcinoma cells (HCT15) or human brain glioma cells (U87) and a solvent DMSO control or 100 nM #40 compound (L16) was plated into a 96-well cell culture plate, and cell morphological image was taken under a phase contrast microscope after cultured at 5% CO2 and 37° C. for 96 hours.
Some cells gradually became round and eventually bursted. These changes are consistent with the features of cell death by methuosis (FIG. 2).
In order to compare the ability of different compounds to cause cell vacuolization, 100 μL culture media (RPMI1640, 2 mmol glutamine, 10% fetal bovine serum) comprising 10^3 human glioma U87 cells and final concentrations of 0.01, 0.0316, 0.1, 0.316, 1.0, 3.160 μM respectively of the compounds to be tested were inoculated into a 96-well culture plate. After cultured at 5% CO2 and 37° C. for 96 hours, cell morphology was observed under a high-magnification microscope, and the ability of the compounds to cause cell vacuolization was scored. 5 scores were given when obvious vacuolization occurred at 10 nM, 4 scores at 31.6 nM, 3 scores at 100 nM, 2 scores at 316 nM, 1 score at 1000 nM, and 0 score was given if no vacuolation occurred at any concentration.

Where [3] appears, read: U87 cells, MTT, 48 hours, highest concentration tested 31.6 μM, read-out: IC50(μM) U87.
Setting [4] is: ability to inhibit cell proliferation, U87 (FIG. 3), unit inferred, read-out: IC50.

This is an account of results in US11390591B2, “2,4,6-trisubstituted s-triazine compound, preparation method therefor, and use thereof” (Aluda Pharmaceuticals, Inc., priority 2016, dated 2022).

Read-outs that look alike come from different tables or passages of the source.

Regarding `CCN(CC)CCNC(=O)c1ccc(NC(=O)Nc2ccc(Nc3nc(/C=C/c4ccccc4)nc(N4CCOCC4)n3)cc2)cc1` [L33, (E)-N-(2-(diethylamino)ethyl)-4-(3-(4-(4-(morpholin-1-yl)-6-styrenyl-1,3,5-triazinyl-2-amino)phenyl)urea)benzamide], the IC50 in assay [1] is 4.31 ± 0.09 µM; in assay [2] (setting [3]), 1.3 ± 0.05 µM; in assay [2] (setting [4]), 1.9 µM. Further, in the assay on human glioma U87 cells, the “Vacuolation Score” value was 3.5.

Take `O=C(Nc1ccc(F)cc1)Nc1ccc(Nc2nc(/C=C/c3ccccc3)nc(N3CCOCC3)n2)cc1` [L2, (E)-1-(4-fluorophenyl)-3-(4-(4-(morpholin-1-yl)-6-styrenyl-1,3,5-triazinyl-2-amino)phenyl)urea]: the results for the IC50 in assay [1], in assay [2] (setting [3]) and in assay [2] (setting [4]) were 2.8 ± 0.21 µM, 4.75 ± 0.87 µM and 4.74 µM, respectively. The “Vacuolation Score” value with human glioma U87 cells is listed as 4.5.

For the compound `O=C(Nc1ccc(Cl)cc1)Nc1ccc(Nc2nc(/C=C/c3ccccc3)nc(N3CC(O)C3)n2)cc1` [L5, (E)-1-(4-chlorophenyl)-3-(4-(4-(3-hydroxyazetidin-1-yl)-6-styrenyl-1,3,5-triazinyl-2-amino)phenyl)urea], the IC50 in assay [1] is 5.03 ± 0.89 µM; in assay [2] (setting [3]), 3.32 ± 0.45 µM; in assay [2] (setting [4]), 3.28 µM. The “Vacuolation Score” value with human glioma U87 cells turned out to be 0.

For the compound `CN1CCN(c2nc(/C=C/c3cccc(Cl)c3)nc(Nc3ccc(NC(=O)Nc4ccc(F)cc4)cc3)n2)CC1` [L9, (E)-1-(4-fluorophenyl)-3-(4-(4-(4-methylpiperazin-1-yl)-6-(3-chlorostyrenyl)-1,3,5-triazinyl-2-amino)phenyl)urea], the IC50 in assay [1] was 3.88 ± 0.65 µM; in assay [2] (setting [3]), 1.47 ± 0.12 µM; in assay [2] (setting [4]), 1.47 µM. For the same compound, in the assay with human glioma U87 cells, the “Vacuolation Score” value is given as 2 (2 scores at 316 nM).

Take `CN1CCN(c2nc(/C=C/c3cccc([N+](=O)[O-])c3)nc(Nc3ccc(NC(=O)Nc4ccc(Cl)cc4)cc3)n2)CC1` [L18, (E)-1-(4-chlorophenyl)-3-(4-(4-(4-methylpiperazin-1-yl)-6-(3-nitrostyrenyl)-1,3,5-triazinyl-2-amino)phenyl)urea]: the IC50 in assay [1] stood at 2.31 ± 0.17 µM; in assay [2] (setting [3]), 1.21 ± 0.07 µM; in assay [2] (setting [4]), 1.21 µM. The “Vacuolation Score” value with human glioma U87 cells came to 0.

As to `CN1CCN(c2nc(/C=C/c3cccc(Cl)c3)nc(Nc3ccc(NC(=O)Nc4ccc(Cl)cc4)cc3)n2)CC1` [L8, (E)-1-(4-chlorophenyl)-3-(4-(4-(4-methylpiperazin-1-yl)-6-(3-chlorostyrenyl)-1,3,5-triazinyl-2-amino)phenyl)urea], the IC50 in assay [1] came out at 1.82 ± 0.09 µM; in assay [2] (setting [3]) it was 1.21 ± 0.16 µM; in assay [2] (setting [4]) it was 1.21 µM. Also, in the assay on human glioma U87 cells, the “Vacuolation Score” value stood at 0.

`O=C(Nc1ccc(Cl)cc1)Nc1cccc(Nc2nc(/C=C/c3cccc([N+](=O)[O-])c3)nc(N3CCOCC3)n2)c1` [L27, (E)-1-(4-chlorophenyl)-3-(3-(4-(morpholin-1-yl)-6-(3-nitrostyrenyl)-1,3,5-triazinyl-2-amino)phenyl)urea]: the IC50 in assay [1] was 2.21 ± 0.33 µM; in assay [2] (setting [3]) it was 3.66 ± 0.55 µM; in assay [2] (setting [4]), 3.66 µM. Besides, in the assay on human glioma U87 cells, the “Vacuolation Score” value stood at 0.

Regarding `CN(C)CCNC(=O)c1ccc(NC(=O)Nc2ccc(Nc3nc(/C=C/c4ccccc4)nc(N4CCOCC4)n3)cc2)cc1` [L32, (E)-N-(2-(dimethylamino)ethyl)-4-(3-(4-(4-(morpholin-1-yl)-6-styrenyl-1,3,5-triazinyl-2-amino)phenyl)urea)benzamide], the concentration for half-maximal inhibition (IC50) in assay [1] is 5.03 ± 0.4 µM; in assay [2] (setting [3]), 2.48 ± 0.44 µM; in assay [2] (setting [4]) it was 2.8 µM. Also, the “Vacuolation Score” value with human glioma U87 cells amounted to 4.5.

`O=C(Nc1ccc(F)cc1)Nc1ccc(Nc2nc(/C=C/c3cccc(Cl)c3)nc(N3CCOCC3)n2)cc1` [L7, (E)-1-(4-fluorophenyl)-3-(4-(4-(morpholin-1-yl)-6-(3-chlorostyrenyl)-1,3,5-triazinyl-2-amino)phenyl)urea]: the IC50 amounted to 1.42 ± 0.12 µM in assay [1], 1.33 ± 0.13 µM in assay [2] (setting [3]) and 1.32 µM in assay [2] (setting [4]). In the assay with human glioma U87 cells, the “Vacuolation Score” value is recorded as 4 (4 scores at 31.6 nM).

Turning to `O=C(Nc1ccc(Nc2nc(/C=C/c3ccc(Cl)cc3)nc(N3CCOCC3)n2)cc1)Nc1cccc(F)c1` [L12, (E)-1-(3-fluorophenyl)-3-(4-(4-(morpholin-1-yl)-6-(4-chlorostyrenyl)-1,3,5-triazinyl-2-amino)phenyl)urea], the IC50 in assay [1] was found to be 2.55 ± 0.12 µM; in assay [2] (setting [3]), 4.41 ± 0.43 µM; in assay [2] (setting [4]) it was 4.43 µM. For the same compound, the “Vacuolation Score” value with human glioma U87 cells is recorded as 2 (2 scores at 316 nM).

On to `CN1CCN(c2nc(/C=C/c3ccc(Cl)cc3)nc(Nc3ccc(NC(=O)Nc4ccc(Cl)cc4)cc3)n2)CC1` [L13, (E)-1-(4-chlorophenyl)-3-(4-(4-(4-methylpiperazin-1-yl)-6-(4-chlorostyrenyl)-1,3,5-triazinyl-2-amino)phenyl)urea], for which the half-maximal inhibitory concentration (IC50) in assay [1] is 0.87 ± 0.08 µM; in assay [2] (setting [3]) it was 2.04 ± 0.09 µM; in assay [2] (setting [4]) it was 2.04 µM. In the assay on human glioma U87 cells, the “Vacuolation Score” value is given as 0.

Consider `O=C(Nc1ccc(Cl)cc1)Nc1ccc(Nc2nc(/C=C/c3cccc(Cl)c3)nc(N3CCOCC3)n2)cc1` [L6, (E)-1-(4-chlorophenyl)-3-(4-(4-(morpholin-1-yl)-6-(3-chlorostyrenyl)-1,3,5-triazinyl-2-amino)phenyl)urea], for which the values for the IC50 in assay [1], in assay [2] (setting [3]) and in assay [2] (setting [4]) were 5.25 ± 0.45 µM, 3.63 ± 0.11 µM and 3.63 µM, respectively. In addition, the “Vacuolation Score” value in the assay on human glioma U87 cells is 4 (4 scores at 31.6 nM).

On to `O=C(Nc1ccc(Nc2nc(/C=C/c3ccccc3)nc(N3CCOCC3)n2)cc1)Nc1ccc(C(=O)O)cc1` [compound 14, (E)-1-(4-carboxyphenyl)-3-(4-(4-(morpholin-1-yl)-6-styrenyl-1,3,5-triazinyl-2-amino)phenyl)urea], for which the “Vacuolation Score” value with human glioma U87 cells stood at 1.5.

As for `O=C(Nc1ccc(Nc2nc(/C=C/c3ccccc3)nc(N3CCOCC3)n2)cc1)Nc1ccc(C(=O)NCCN2CCOCC2)cc1` [L37, (E)-N-(2-(morpholin-1-yl)ethyl)-4-(3-(4-(4-(morpholin-1-yl)-6-styrenyl-1,3,5-triazinyl-2-amino)phenyl)urea)benzamide], the IC50 in assay [1] stood at 5.19 ± 1.48 µM; in assay [2] (setting [3]), 0.55 ± 0.05 µM; in assay [2] (setting [4]) it was 0.82 µM. Also, the “Vacuolation Score” value in the assay on human glioma U87 cells is on record as 3.5.

In the case of `O=C(Nc1ccc(Cl)cc1)Nc1cccc(Nc2nc(/C=C/c3ccccc3)nc(N3CCOCC3)n2)c1` [L23, (E)-1-(4-chlorophenyl)-3-(3-(4-(morpholin-1-yl)-6-styrenyl-1,3,5-triazinyl-2-amino)phenyl)urea], the figures for the IC50 in assay [1], in assay [2] (setting [3]) and in assay [2] (setting [4]) were 1.44 ± 0.1 µM, 1 ± 0.06 µM and 1 µM, respectively. Also, the “Vacuolation Score” value in the assay on human glioma U87 cells is listed as 0.

As for `CN1CCN(c2nc(/C=C/c3ccccc3)nc(Nc3cccc(NC(=O)Nc4ccc(Cl)cc4)c3)n2)CC1` [L24, (E)-1-(4-chlorophenyl)-3-(3-(4-(4-methylpiperazin-1-yl)-6-styrenyl-1,3,5-triazinyl-2-amino)phenyl)urea], the values for the IC50 in assay [1], in assay [2] (setting [3]) and in assay [2] (setting [4]) were 4.03 ± 0.65 µM, 4.4 ± 0.88 µM and 4.4 µM, respectively. Further, the “Vacuolation Score” value with human glioma U87 cells is reported as 0.

Turning to `Cl.O=C(Nc1ccc(Cl)cc1)Nc1ccc(Nc2nc(/C=C/c3cccc([N+](=O)[O-])c3)nc(N3CCOCC3)n2)cc1` [compound 68], in assay [2] (Homo sapiens, ability to inhibit cell proliferation, U87 (FIG. 3), unit inferred, read-out: IC50), the IC50 was 3.28 µM. Moreover, in the assay on human glioma U87 cells, the “Vacuolation Score” value is given as 4 (4 scores at 31.6 nM).

The IC50 is the concentration that gives 50% inhibition.
